# Test results as given in ChEMBL document CHEMBL4190309, “Synthesis, antimicrobial, DNA cleavage and antioxidant activities of tricyclic sultams derived from saccharin” (Eur J Med Chem, 2017).
# Calls of active or inactive are those of the source. The rule behind the calls is not given here.
# Key:
# [1] = Antioxidant activity assessed as ABTS radical scavenging activity at 2 uM by spectrophotometric analysis; assay type: functional
# Escherichia coli [2] = assay: Antibacterial activity against Escherichia coli ATCC 25922 assessed as diameter of inhibition zone at 100 uM after 24 hrs by cup diffusion method; assay type: functional; settings: ATCC 25922, 24 h, read-out: DIZ
# Staphylococcus aureus [3] = assay: Antibacterial activity against Staphylococcus aureus ATCC 25923 assessed as diameter of inhibition zone at 100 uM after 24 hrs by cup diffusion method; assay type: functional; settings: ATCC 25923, 24 h, read-out: DIZ
# Pseudomonas aeruginosa [4] = assay: Antibacterial activity against Pseudomonas aeruginosa ATCC 27853 assessed as diameter of inhibition zone at 100 uM after 24 hrs by cup diffusion method; assay type: functional; settings: ATCC 27853, 24 h, read-out: DIZ
# Priestia megaterium = assay: Antibacterial activity against Bacillus megaterium ATCC 14591 assessed as diameter of inhibition zone at 100 uM after 24 hrs by cup diffusion method; assay type: functional; settings: ATCC 14591, 24 h, read-out: DIZ
# Escherichia coli [5] = assay: Antibacterial activity against Escherichia coli ATCC 25922 after 24 hrs by serial dilution method; assay type: functional; settings: ATCC 25922, 24 h
# Staphylococcus aureus [6] = assay: Antibacterial activity against Staphylococcus aureus ATCC 25923 after 24 hrs by serial dilution method; assay type: functional; settings: ATCC 25923, 24 h
# Pseudomonas aeruginosa [7] = assay: Antibacterial activity against Pseudomonas aeruginosa ATCC 27853 after 24 hrs by serial dilution method; assay type: functional; settings: ATCC 27853, 24 h
# DNA [8] = assay: Induction of Escherichia coli DNA cleavage after 1 hr by […] staining-based agarose gel electrophoresis; assay type: nucleic-acid assay
# DNA [9] = assay: Induction of Escherichia coli DNA cleavage at 2 uM after 1 hr by […] staining-based agarose gel electrophoresis; assay type: nucleic-acid assay
# DNA [10] = assay: Induction of Escherichia coli DNA cleavage at 4 uM after 1 hr by […] staining-based agarose gel electrophoresis; assay type: nucleic-acid assay
# DNA [11] = assay: Induction of Escherichia coli DNA cleavage at 6 uM after 1 hr by […] staining-based agarose gel electrophoresis; assay type: nucleic-acid assay
# DNA [12] = assay: Induction of Escherichia coli DNA cleavage at 10 to 12 uM after 1 hr by […] staining-based agarose gel electrophoresis; assay type: nucleic-acid assay
# [13] = Antiproliferative activity against hepatic cancer cells (unknown origin) at 50 uM by MTT assay relative to control; assay type: functional
# [14] = Antioxidant activity assessed as superoxide anion scavenging activity at 2 uM at pH 8.3 by NBT/NADH/PMS assay relative to control; assay type: functional
# [15] = Antioxidant activity assessed as superoxide anion scavenging activity at pH 8.3 by NBT/NADH/PMS assay; assay type: functional
# DNA [16] = assay: Induction of Escherichia coli DNA cleavage at 8 uM after 1 hr by […] staining-based agarose gel electrophoresis; assay type: nucleic-acid assay
SMILES,Activity [1],zone of inhibition at 100 µM (Escherichia coli [2]),zone of inhibition at 100 µM (Staphylococcus aureus [3]),zone of inhibition at 100 µM (Pseudomonas aeruginosa [4]),zone of inhibition at 100 µM (Priestia megaterium),MIC (Escherichia coli [5]),MIC (Staphylococcus aureus [6]),MIC (Pseudomonas aeruginosa [7]),Activity (DNA [8]),Activity (DNA [9]),Activity (DNA [10]),Activity (DNA [11]),Activity (DNA [12]),Activity [13],Activity [14],Activity [15],IC50 [15],Activity (DNA [16])
Cc1ccccc1NC(=O)C1=C2c3ccccc3S(=O)(=O)N2CC1,62.5%,17 mm,19 mm,18 mm,20 mm,11 µg/mL,12 µg/mL,17 µg/mL,Dose-dependent effect,inactive,Active,Active,Active,49.6%,61.7%,Dose-dependent effect,1.62 µM,–
COC(=O)C1=C2c3ccccc3S(=O)(=O)N2CC1,63.8%,17 mm,20 mm,16 mm,19 mm,15 µg/mL,15 µg/mL,14 µg/mL,Dose-dependent effect,inactive,–,Active,Active,36.6%,59.4%,Dose-dependent effect,1.68 µM,Active
CCOC(=O)C1=C2c3ccccc3S(=O)(=O)N2CC1,46.7%,16 mm,17 mm,14 mm,16 mm,18 µg/mL,14 µg/mL,15 µg/mL,Dose-dependent effect,inactive,–,–,Active,19.6%,48.3%,Dose-dependent effect,2.07 µM,Active
CN[C@H](CC(C)C)C(=O)N[C@H]1C(=O)N[C@@H](CC(N)=O)C(=O)N[C@H]2C(=O)N[C@H]3C(=O)N[C@H](C(=O)N[C@H](C(=O)O)c4cc(O)cc(O)c4-c4cc3ccc4O)[C@H](O)c3ccc(c(Cl)c3)Oc3cc2cc(c3O[C@@H]2O[C@H](CO)[C@@H](O)[C@H](O)[C@H]2O[C@H]2C[C@](C)(N)[C@H](O)[C@H](C)O2)Oc2ccc(cc2Cl)[C@H]1O [VANCOMYCIN],–,–,–,–,–,–,14 µg/mL,–,–,–,–,–,–,–,–,–,–,–
O=C(Nc1ccccc1)C1=C2c3ccccc3S(=O)(=O)N2CC1,46.9%,13 mm,14 mm,12 mm,12 mm,21 µg/mL,16 µg/mL,28 µg/mL,Dose-dependent effect,inactive,–,–,Active,58.6%,44.8%,Dose-dependent effect,2.23 µM,–
CC1(C)[C@H]2CC[C@]1(C)[C@H](OC(=O)C1=C3c4ccccc4S(=O)(=O)N3CC1)C2,62.7%,16 mm,18 mm,14 mm,17 mm,23 µg/mL,18 µg/mL,27 µg/mL,Dose-dependent effect,inactive,–,Active,Active,63%,60.1%,Dose-dependent effect,1.66 µM,Active
O=C(Nc1ccc([N+](=O)[O-])cc1)C1=C2c3ccccc3S(=O)(=O)N2CC1,54.7%,13 mm,12 mm,14 mm,11 mm,24 µg/mL,18 µg/mL,19 µg/mL,Dose-dependent effect,inactive,–,–,Active,56.6%,51.2%,Dose-dependent effect,1.95 µM,Active
CC(C)[C@@H]1CC[C@@H](C)C[C@H]1OC(=O)C1=C2c3ccccc3S(=O)(=O)N2CC1,60.3%,17 mm,19 mm,18 mm,18 mm,33 µg/mL,24 µg/mL,25 µg/mL,Dose-dependent effect,inactive,Active,Active,Active,70.2%,58.6%,Dose-dependent effect,1.71 µM,Active
CC1(C)S[C@@H]2[C@H](NC(=O)[C@H](N)c3ccccc3)C(=O)N2[C@H]1C(=O)O [AMPICILLIN],–,19 mm,23 mm,20 mm,21 mm,–,–,–,–,–,–,–,–,–,–,–,–,–
O=C(OCCCl)C1=C2c3ccccc3S(=O)(=O)N2CC1,64.8%,17 mm,20 mm,18 mm,20 mm,21 µg/mL,8 µg/mL,20 µg/mL,Dose-dependent effect,inactive,Active,Active,Active,59.6%,63.1%,Dose-dependent effect,1.58 µM,Active
COc1ccc(NC(=O)C2=C3c4ccccc4S(=O)(=O)N3CC2)cc1,48.2%,15 mm,16 mm,14 mm,13 mm,22 µg/mL,22 µg/mL,33 µg/mL,Dose-dependent effect,inactive,–,–,Active,61%,49.4%,Dose-dependent effect,2.02 µM,Active
